Results: the supplement of paper PMC8149375

Columns and labels:
Conditions in all cases: treatment: drug alone; 5 days
UO-31 [1] = test: AUC of dose-response viability curve, drug alone (arbitrary (AUC of normalised viability)); higher = less growth inhibition
Protocol: (§1)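 Primary HTS: 8 RCC cell lines treated with 8 doses (up to 10 uM) of each library drug alone for 5 days; viability read by CellTiter-Glo and normalised to DMSO. GI50 was fitted with XLfit (4-parameter), AUC is the area under the dose-response curve, and minimum viability is the lowest fraction of DMSO viability across doses.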

A498 [2] = test: as above
Protocol: as §1

CAKI-1 [3] = test: as above
Protocol: as §1

ACHN [4] = test: as above
Protocol: as §1

769-P [5] = test: as above
Protocol: as §1

SN12C [6] = test: as above
Protocol: as §1

TK-10 [7] = test: as above
Protocol: as §1

786-O [8] = test: as above
Protocol: as §1

UO-31 [9] = test: minimum viability across doses, drug alone, relative to DMSO (fraction); higher = less growth inhibition
Protocol: as §1

A498 [10] = test: as above
Protocol: as §1

CAKI-1 [11] = test: as above
Protocol: as §1

ACHN [12] = test: as above
Protocol: as §1

769-P [13] = test: as above
Protocol: as §1

SN12C [14] = test: as above
Protocol: as §1

TK-10 [15] = test: as above
Protocol: as §1

786-O [16] = test: as above
Protocol: as §1

UO-31 [17] = test: GI50, drug alone; higher = less potent
Protocol: as §1

A498 [18] = test: GI50, drug alone; higher = less potent
Protocol: as §1

CAKI-1 [19] = test: GI50, drug alone; higher = less potent
Protocol: as §1

ACHN [20] = test: GI50, drug alone; higher = less potent
Protocol: as §1

769-P [21] = test: GI50, drug alone; higher = less potent
Protocol: as §1

SN12C [22] = test: GI50, drug alone; higher = less potent
Protocol: as §1

TK-10 [23] = test: GI50, drug alone; higher = less potent
Protocol: as §1

786-O [24] = test: GI50, drug alone; higher = less potent
Protocol: as §1

GI50, drug alone (ACHN [20]) | GI50, drug alone (786-O [24]) | SMILES | AUC of dose-response viability curve (UO-31 [1]) | AUC of dose-response viability curve (A498 [2]) | AUC of dose-response viability curve (CAKI-1 [3]) | AUC of dose-response viability curve (ACHN [4]) | AUC of dose-response viability curve (769-P [5]) | AUC of dose-response viability curve (SN12C [6]) | AUC of dose-response viability curve (TK-10 [7]) | AUC of dose-response viability curve (786-O [8]) | minimum viability across doses (UO-31 [9]) | minimum viability across doses (A498 [10]) | minimum viability across doses (CAKI-1 [11]) | minimum viability across doses (ACHN [12]) | minimum viability across doses (769-P [13]) | minimum viability across doses (SN12C [14]) | minimum viability across doses (TK-10 [15]) | minimum viability across doses (786-O [16]) | GI50, drug alone (UO-31 [17]) | GI50, drug alone (A498 [18]) | GI50, drug alone (CAKI-1 [19]) | GI50, drug alone (769-P [21]) | GI50, drug alone (SN12C [22]) | GI50, drug alone (TK-10 [23])
7.52 µM | 4.97 µM | CC[C@H](CO)Nc1nc(NCc2ccccc2)c2ncn(C(C)C)c2n1 [Roscovitine (Seliciclib, CYC202)] | 3.47 | 3.91 | 3.27 | 3.25 | 3.28 | 3.57 | 3.17 | 2.76 | 0.544 | 1.03 | 0.763 | 0.36 | 0.848 | 0.769 | 0.655 | 0.208 | > 10 µM | > 10 µM | > 10 µM | > 10 µM | > 10 µM | > 10 µM
> 10 µM | > 10 µM | Cn1cc(-c2ccc3nnc(Sc4ccc5ncccc5c4)n3n2)cn1 [SGX-523] | 3.83 | 3.75 | 3.18 | 3.23 | 3.22 | 3.21 | 3.06 | 2.77 | 1.01 | 0.855 | 0.806 | 0.725 | 0.776 | 0.746 | 0.775 | 0.56 | > 10 µM | > 10 µM | > 10 µM | > 10 µM | > 10 µM | > 10 µM
0.168 µM | 0.0504 µM | CS(=O)(=O)O.O=C(Nc1cccc(Cl)c1)Nc1ncc(CCNc2ncnc3ccsc23)s1 [SNS-314] | 4.36 | 4.02 | 1.36 | 1.77 | 2.2 | 2.54 | 2.73 | 1.76 | 0.891 | 0.637 | 0.172 | 0.17 | 0.343 | 0.245 | 0.536 | 0.159 | > 10 µM | > 10 µM | 0.0361 µM | 0.506 µM | 1.75 µM | > 10 µM
> 10 µM | > 10 µM | CN1CCN(c2nc(C3=C(c4c[nH]c5ccccc45)C(=O)NC3=O)c3ccccc3n2)CC1 [Sotrastaurin (AEB071)] | 5.49 | 4.36 | 3.38 | 3.2 | 2.58 | 3.44 | 3.23 | 4 | 1.38 | 1.12 | 0.783 | 0.743 | 0.969 | 0.91 | 0.805 | 0.911 | > 10 µM | > 10 µM | > 10 µM | > 10 µM | > 10 µM | > 10 µM

The next lines start with the compound.

SMILES | GI50, drug alone (ACHN [20]) | GI50, drug alone (786-O [24]) | AUC of dose-response viability curve (UO-31 [1]) | AUC of dose-response viability curve (A498 [2]) | AUC of dose-response viability curve (CAKI-1 [3]) | AUC of dose-response viability curve (ACHN [4]) | AUC of dose-response viability curve (769-P [5]) | AUC of dose-response viability curve (SN12C [6]) | AUC of dose-response viability curve (TK-10 [7]) | AUC of dose-response viability curve (786-O [8]) | minimum viability across doses (UO-31 [9]) | minimum viability across doses (A498 [10]) | minimum viability across doses (CAKI-1 [11]) | minimum viability across doses (ACHN [12]) | minimum viability across doses (769-P [13]) | minimum viability across doses (SN12C [14]) | minimum viability across doses (TK-10 [15]) | minimum viability across doses (786-O [16]) | GI50, drug alone (UO-31 [17]) | GI50, drug alone (A498 [18]) | GI50, drug alone (CAKI-1 [19]) | GI50, drug alone (769-P [21]) | GI50, drug alone (SN12C [22]) | GI50, drug alone (TK-10 [23])
CN1CCN(CCOc2cc(OC3CCOCC3)c3c(Nc4c(Cl)ccc5c4OCO5)ncnc3c2)CC1 [Saracatinib (AZD0530)] | 1.03 µM | 2.81 µM | 4.46 | 3.69 | 3.08 | 2.46 | 2.47 | 2.84 | 2.45 | 2.35 | 0.447 | 0.958 | 0.213 | 0.22 | 0.0835 | 0.504 | 0.109 | 0.302 | 8.99 µM | > 10 µM | 2.34 µM | 1.26 µM | > 10 µM | 1.22 µM
Cc1cc(C)c(/C=C2\C(=O)Nc3ccccc32)[nH]1 [Semaxanib (SU5416)] | > 10 µM | > 10 µM | 4.68 | 3.76 | 3.45 | 2.92 | 3.45 | 3.42 | 3.2 | 3.12 | 0.928 | 0.97 | 0.902 | 0.76 | 0.892 | 0.911 | 0.778 | 0.778 | > 10 µM | > 10 µM | > 10 µM | > 10 µM | > 10 µM | > 10 µM
CNC(=O)c1cc(Oc2ccc(NC(=O)Nc3ccc(Cl)c(C(F)(F)F)c3)cc2)ccn1.Cc1ccc(S(=O)(=O)O)cc1 [Sorafenib (Nexavar)] | 8.05 µM | 4.87 µM | 2.44 | 3.4 | 3.55 | 3.46 | 3.31 | 2.9 | 3.25 | 2.7 | 0.00476 | 0.627 | 0.18 | 0.0796 | 0.592 | 0.154 | 0.513 | 0.0994 | 0.734 µM | > 10 µM | 9.2 µM | > 10 µM | 5.13 µM | > 10 µM
CN[C@@H]1C[C@H]2O[C@@](C)([C@@H]1OC)n1c3ccccc3c3c4c(c5c6ccccc6n2c5c31)C(=O)NC4 [Staurosporine] | 0.00533 µM | < 0.003 µM | 0.1 | 1.56 | 0.143 | 0.526 | 0.299 | 1.06 | 0.286 | 0.171 | 0.0116 | 0.0127 | 0.00272 | 0.00377 | 0.00587 | 0.00485 | 0.0227 | 0.00288 | < 0.003 µM | 0.0909 µM | < 0.003 µM | < 0.003 µM | 0.0333 µM | < 0.003 µM
CCN(CC)CCNC(=O)c1c(C)[nH]c(/C=C2\C(=O)Nc3ccc(F)cc32)c1C.O=C(O)C[C@H](O)C(=O)O [Sunitinib Malate (Sutent)] | 0.65 µM | 3.98 µM | 3.93 | 3.58 | 2.77 | 2.33 | 3.15 | 2.6 | 2.82 | 3.62 | 0.0171 | 0.21 | 0.0138 | 0.0641 | 0.156 | 0.0296 | 0.186 | 0.0182 | 3.15 µM | 5.2 µM | 1.49 µM | 5.36 µM | 1.9 µM | 3.29 µM
